Data as given in patent US10100022B2, “Sphingosine kinase inhibitors” (University of Virginia Patent Foundation, priority 2014, dated 2018).

Columns and labels:
[1] = biological target: T1, human sphingosine kinase type 1 (hSPHK1) (Homo sapiens, UniProt Q9NYA1); experiment: Sphingosine kinase assay, recombinant human SPHK1 ([32P]S1P product, scintillation counting); type: biochemical; settings: read-out: activity hSPHK1 (range estimate of KI)
T1 construct: made in house; host or cells: Sf9 insect cells (baculovirus)
T1 sequence (Q9NYA1 whole entry): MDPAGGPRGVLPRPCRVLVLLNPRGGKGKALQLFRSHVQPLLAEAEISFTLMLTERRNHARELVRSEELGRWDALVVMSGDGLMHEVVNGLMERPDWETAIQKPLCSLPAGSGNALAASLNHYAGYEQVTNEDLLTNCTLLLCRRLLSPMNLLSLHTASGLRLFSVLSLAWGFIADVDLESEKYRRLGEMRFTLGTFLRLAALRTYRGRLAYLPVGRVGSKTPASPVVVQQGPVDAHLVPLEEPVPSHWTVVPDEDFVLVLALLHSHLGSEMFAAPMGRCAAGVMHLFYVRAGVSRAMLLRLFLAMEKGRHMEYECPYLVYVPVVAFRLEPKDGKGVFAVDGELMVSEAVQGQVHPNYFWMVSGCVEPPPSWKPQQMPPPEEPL
Experimental: (§1) Recombinant baculovirus encoding human sphingosine kinase type 1 (SPHK1) was used to infect Sf9 insect cells and after 2-5 days, cleared lysates were prepared and used without further purification. Human SPHK2, which was partially purified from baculovirus-infected Sf9 cell lysates, was purchased from a commercial source. Sphingosine kinase assays were performed using standard protocols. Product [^32P]S1P was recovered by binding to cation exchange paper and quantified by scintillation counting.

[2] = biological target: T2, human sphingosine kinase type 2 (hSPHK2) (Homo sapiens, UniProt Q9NRA0); experiment: Sphingosine kinase assay, recombinant human SPHK2 ([32P]S1P product, scintillation counting); type: biochemical; settings: read-out: activity hSPHK2 (range estimate of KI)
T2 construct: purchased; host or cells: Sf9 insect cells (baculovirus)
T2 sequence (Q9NRA0 1-654): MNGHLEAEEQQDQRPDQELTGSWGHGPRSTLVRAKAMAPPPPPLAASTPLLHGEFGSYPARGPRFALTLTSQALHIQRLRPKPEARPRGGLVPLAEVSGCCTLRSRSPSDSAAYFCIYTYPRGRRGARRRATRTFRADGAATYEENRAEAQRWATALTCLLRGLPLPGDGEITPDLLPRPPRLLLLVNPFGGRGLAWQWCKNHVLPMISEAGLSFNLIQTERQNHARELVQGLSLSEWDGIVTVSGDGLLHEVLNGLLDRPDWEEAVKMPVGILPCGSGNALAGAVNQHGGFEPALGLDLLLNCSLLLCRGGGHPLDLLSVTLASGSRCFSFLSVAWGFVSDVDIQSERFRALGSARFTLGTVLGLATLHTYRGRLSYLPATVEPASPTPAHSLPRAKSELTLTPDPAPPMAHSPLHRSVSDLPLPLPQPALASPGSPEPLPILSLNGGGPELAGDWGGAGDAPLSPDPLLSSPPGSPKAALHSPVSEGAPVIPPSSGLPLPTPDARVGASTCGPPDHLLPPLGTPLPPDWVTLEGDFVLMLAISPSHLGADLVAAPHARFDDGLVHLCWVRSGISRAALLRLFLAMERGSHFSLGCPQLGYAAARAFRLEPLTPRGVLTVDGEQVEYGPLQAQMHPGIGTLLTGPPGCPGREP
Experimental: as §1

Row | SMILES | Ki [1] [µM] | Ki [2] [µM]
1 | CCCCCCCn1cc(-c2noc([C@@H]3CCCN3C(=N)N)n2)c2ccccc21 [Compound 1A, (S)-amino(2-(3-(1-heptyl-1H-indol-3-yl)-1,2,4-oxadiazol-5-yl)pyrrolidin-1-yl)methaniminium chloride] | > 10 | > 10
2 | CCCCCCCCCOc1ccc(-c2noc([C@@H]3CCCN3C(=N)N)n2)cc1C(F)(F)F [Compound 1B] | > 10 | < 1
3 | CCCCCCCCCn1cc(-c2noc([C@@H]3CCCN3C(=N)N)n2)c2ccccc21 [Compound 2A, (S)-amino(2-(3-(1-nonyl-1H-indol-3-yl)-1,2,4-oxadiazol-5-yl)pyrrolidin-1-yl)methaniminium chloride] | > 10 | > 10
4 | CCCCCCCCOc1ccc(-c2noc([C@@H]3CCCN3C(=N)N)n2)cc1C(F)(F)F [Compound 2B] | > 10 | 
5 | CCCCCCCCCCCCn1cc(-c2noc([C@@H]3CCCN3C(=N)N)n2)c2ccccc21 [Compound 3A, (S)-amino(2-(3-(1-dodecyl-1H-indol-3-yl)-1,2,4-oxadiazol-5-yl)pyrrolidin-1-yl)methaniminium chloride] |  | < 1
6 | CCCCCCCCCc1ccc(-c2noc([C@@H]3CCCN3C(=N)N)n2)cc1C(F)(F)F [Compound 3B] | > 10 | < 1
7 | CCCCCCCCCCCn1cc(-c2noc([C@@H]3CCCN3C(=N)N)n2)c2ccccc21 [Compound 4A, (S)-amino(2-(3-(1-undecyl-1H-indol-3-yl)-1,2,4-oxadiazol-5-yl)pyrrolidin-1-yl)methaniminium chloride] | > 10 | 1 to 10
8 | CCCCCCCCOc1ccc(-c2noc([C@@H]3CCCN3C(=N)N)n2)cc1Br [Compound 4B] | > 10 | < 1
9 | CCCCCCCCc1ccc(-c2noc([C@@H]3CCCN3C(=N)N)n2)cc1C(F)(F)F [Compound 5A, (S)-Amino(2-(3-(4-octyl-3-(trifluoromethyl)phenyl)-1,2,4-oxadiazol-5-yl)pyrrolidin-1-yl)methaniminium chloride] | > 10 | < 1
10 | CCCCCCCCOc1ccc(-c2nnc([C@@H]3CCCN3C(=N)N)s2)cc1C(F)(F)F [Compound 5B] | > 10 | < 1
11 | CCCCCCCCOc1ccc(-c2noc([C@@H]3CCCN3C(=N)N)n2)cc1C [Compound 6B] | > 10 | < 1
12 | CCCCCCCCCCn1cc(-c2noc([C@@H]3CCCN3C(=N)N)n2)c2ccccc21 [Compound 7A, (S)-amino(2-(3-(1-decyl-1H-indol-3-yl)-1,2,4-oxadiazol-5-yl)pyrrolidin-1-yl)methaniminium chloride] |  | < 1
13 | CCCCCCCCOc1c(C)cc(-c2noc([C@@H]3CCCN3C(=N)N)n2)cc1C [Compound 7B] | > 10 | < 1
14 | CCCCCCCCOc1ccc(-c2noc([C@@H]3C[C@@H](O)CN3C(=N)N)n2)cc1C(F)(F)F [Compound 8A, amino((2S,4R)-4-hydroxy-2-(3-(4-(octyloxy)-3-(trifluoromethyl)phenyl)-1,2,4-oxadiazol-5-yl)pyrrolidin-1-yl)methaniminium chloride] | > 10 | < 1
15 | CC(C)COc1ccc2cc(-c3noc([C@@H]4CCCN4C(=N)N)n3)ccc2c1 [Compound 14A, (S)-amino(2-(3-(6-isobutoxynaphthalen-2-yl)-1,2,4-oxadiazol-5-yl)pyrrolidin-1-yl)methaniminium chloride] | > 10 | > 10
16 | CC(C)COc1ccc2cc(-c3noc([C@@H]4[C@@H](O)CCN4C(=N)N)n3)ccc2c1 [Compound 15A, Amino((2S,3S)-3-hydroxy-2-(3-(6-isobutoxynaphthalen-2-yl)-1,2,4-oxadiazol-5-yl)pyrrolidin-1-yl)methaniminium chloride] | 1 to 10 | > 10
17 | CC1(C)CCC(C)(C)c2cc(COc3ccc4cc(-c5noc([C@@H]6CCCN6C(=N)N)n5)ccc4c3)ccc21 [Compound 71A, (S)-amino(2-(3-(6-((5,5,8,8-tetramethyl-5,6,7,8-tetrahydronaphthalen-2-yl)methoxy)naphthalen-2-yl)-1,2,4-oxadiazol-5-yl)pyrrolidin-1-yl)methaniminium chloride] |  | > 10

Next, values leading:

Row | Ki [1] [µM] | Ki [2] [µM] | SMILES
18 | > 10 | < 1 | CCCCCCCn1ccc2c(-c3noc([C@@H]4CCCN4C(=N)N)n3)cccc21 [Compound 8B, (S)-amino(2-(3-(1-heptyl-1H-indol-4-yl)-1,2,4-oxadiazol-5-yl)pyrrolidin-1-yl)methaniminium chloride]
19 | > 10 | > 10 | CCCCCCCCOc1ccc(-c2noc([C@@H]3C[C@H](O)CN3C(=N)N)n2)cc1C(F)(F)F [Compound 9A, amino((2S,4S)-4-hydroxy-2-(3-(4-(octyloxy)-3-(trifluoromethyl)phenyl)-1,2,4-oxadiazol-5-yl)pyrrolidin-1-yl)methaniminium chloride]
20 | > 10 | < 1 | CCCCCCCCn1ccc2c(-c3noc([C@@H]4CCCN4C(=N)N)n3)cccc21 [Compound 9B, (S)-amino(2-(3-(1-octyl-1H-indol-4-yl)-1,2,4-oxadiazol-5-yl)pyrrolidin-1-yl)methaniminium chloride]
21 | > 10 | > 10 | CCCCCCCCOc1ccc(-c2noc([C@@H]3[C@H](O)CCN3C(=N)N)n2)cc1C(F)(F)F [Compound 10A, amino((2S,3R)-3-hydroxy-2-(3-(4-(octyloxy)-3-(trifluoromethyl)phenyl)-1,2,4-oxadiazol-5-yl)pyrrolidin-1-yl)methaniminium chloride]
22 | > 10 | < 1 | CCCCCCCCCn1ccc2c(-c3noc([C@@H]4CCCN4C(=N)N)n3)cccc21 [Compound 10B, (S)-amino(2-(3-(1-nonyl-1H-indol-4-yl)-1,2,4-oxadiazol-5-yl)pyrrolidin-1-yl)methaniminium chloride]
23 | > 10 | > 10 | CCCCCCCCOc1ccc(-c2noc([C@@H]3CCCN3C(=N)N)n2)cc1F [Compound 11A, (S)-Amino(2-(3-(3-fluoro-4-(octyloxy)phenyl)-1,2,4-oxadiazol-5-yl)pyrrolidin-1-yl)methaniminium chloride]
24 | > 10 | < 1 | CCCCCCCCCCn1ccc2c(-c3noc([C@@H]4CCCN4C(=N)N)n3)cccc21 [Compound 11B, (S)-amino(2-(3-(1-decyl-1H-indol-4-yl)-1,2,4-oxadiazol-5-yl)pyrrolidin-1-yl)methaniminium chloride]
25 | > 10 | > 10 | CCCCCOc1ccc2cc(-c3noc([C@@H]4CCCN4C(=N)N)n3)ccc2c1 [Compound 12A, (S)-amino(2-(3-(6-(pentyloxy)naphthalen-2-yl)-1,2,4-oxadiazol-5-yl)pyrrolidin-1-yl)methaniminium chloride]
26 | 1 to 10 | < 1 | CCCCCCOc1ccc(-c2noc([C@@H]3CCCN3C(=N)N)n2)cc1C(F)(F)F [Compound 12B]
27 | > 10 | 1 to 10 | CCCCCCCOc1ccc2cc(-c3noc([C@@H]4CCCN4C(=N)N)n3)ccc2c1 [Compound 13A, (S)-amino(2-(3-(6-(heptyloxy)naphthalen-2-yl)-1,2,4-oxadiazol-5-yl)pyrrolidin-1-yl)methaniminium chloride]
28 | 1 to 10 | < 1 | CCCCCCCCOc1ccc(-c2noc([C@@H]3CCN3C(=N)N)n2)cc1C(F)(F)F [Compound 13B]
29 | < 1 | < 1 | CCCCCOc1ccc2cc(-c3noc([C@@H]4[C@@H](O)CCN4C(=N)N)n3)ccc2c1 [Compound 14B, Amino((2S,3S)-3-hydroxy-2-(3-(6-(pentyloxy)naphthalen-2-yl)-1,2,4-oxadiazol-5-yl)pyrrolidin-1-yl)methaniminium chloride]
30 | > 10 | > 10 | CCCCCCOc1ccc2cc(-c3noc([C@@H]4CCCN4C(=N)N)n3)ccc2c1 [Compound 16A, (S)-amino(2-(3-(6-(hexyloxy)naphthalen-2-yl)-1,2,4-oxadiazol-5-yl)pyrrolidin-1-yl)methaniminium chloride]
31 |  | 1 to 10 | N=C(N)N1CCC[C@H]1c1nc(-c2ccc3cc(OCc4ccc(C(F)(F)F)cc4)ccc3c2)no1 [Compound 52A, (S)-amino(2-(3-(6-((4-(trifluoromethyl)benzyl)oxy)naphthalen-2-yl)-1,2,4-oxadiazol-5-yl)pyrrolidin-1-yl)methaniminium chloride]
32 |  | 1 to 10 | CCCCOc1ccc2cc(-c3noc([C@@H]4CCCN4C(=N)N)n3)ccc2c1 [Compound 56A, (S)-amino(2-(3-(6-(butyloxy)naphthalen-2-yl)-1,2,4-oxadiazol-5-yl)pyrrolidin-1-yl)methaniminium chloride]
